Data published in US10376530B2, “Pharmaceutical composition for preventing or treating gleevec-resistant leukemia containing ginsenoside F1 or ginsenoside Rg3 as an active ingredient” (INTELLIGENT SYNTHETIC BIOLOGY CENTER, priority 2015, dated 2019).

Tests used:
Type in all cases: cell-based, human
NK cells [1] = assay: CD107a level on NK cells in PBMC stimulated with K562 target cells, flow cytometry (Example 1); settings: PBMC (NK cell purity 95% or higher) treated with ginsenoside, then K562 target cells; FIG. 1
Description: To discover ginsenosides which can affect the cell-killing activity of NK cells, peripheral blood mononuclear cells (PBMC) separated from the blood were treated with 15 different kinds of (C-K, F2, PPD, Rb1, Rb2, Rc, Rd, Rg3, Rh2, F1, PPT, Re, Rg1, Rg2, and Rh1) ginsenosides, and then, the level of CD107a, which is a marker protein representing cell-killing activity and expressed on NK cells, was measured by flow cytometry (FIG. 1).
In particular, for the PBMC, those selected as follows were used. That is, the collected blood samples were transferred into Vacutainer Cell Preparation tubes (sodium heparin; BD Biosciences), centrifuged to recover a buffy coat, lymphocytes and monocyte band, and the recovered buffy coat was washed with PBS and applied to the human NK cell negative selection kit (Miltenyl Biotech) to isolate […].
Additionally, the CD107a level was measured as follows. […] Then, the NK cells were isolated by performing flow cytometry analysis using anti-CD3 antibody and anti-CD56 antibody, and the NK cells were immunostained using anti-CD107a antibody and the level of CD107a was measured.

NK cells [2] = assay: Intracellular IFN-γ expression by NK cells in PBMC stimulated with mutants of KCL-22 cells, flow cytometry (Example 2); settings: PBMC treated with ginsenoside, stimulated with equal number of mutants of KCL-22 cells, Brefeldin A; FIG. 2
Description: The 7 different kinds of ginsenosides discovered in Example 1 were treated and those ginsenosides which increased the expression level of the immune-stimulating factor (IFN-γ) by NK cells were selected (FIG. 2). In particular, the expression level of IFN-γ was measured as follows. That is, the PBMC samples isolated in Example 1 were treated with each ginsenoside, stimulated by treating with the equal number of target cells (mutants of KCL-22 cells), and then treated with Brefeldin A (GolgiPlug; BD Biosciences). Thereafter, a flow cytometry analysis was performed using fluochrome-conjugated anti-CD3 antibody and anti-CD56 antibody to identify NK cells present in PBMC, and then treated with Cytofix/Cytoperm (BD Biosicences) for perforation, and immunostained with fluochrome-conjugated anti-IFN-γ antibody to measure the intracellular level of IFN-γ(FIG. 2).

[3] = test system: Gleevec-resistant mutants of KCL-22 cells; assay: Cell-killing activity of NK cells against europium-labeled target cells (Example 5); settings: E:T ratios 0.625:1, 1.25:1, 2.5:1, 5:1; DMSO control; FIGS. 5A and 5B
Description: The NK cells isolated in Example 1 was treated with ginsenoside F1 or ginsenoside Rg3, and incubated with target cells (Gleevec-resistant mutants of KCL-22 cells) labeled with an europium fluorescent dye at various E:T ratios (the ratio between the number of NK cells:the number of target cells=0.625:1, 1.25:1, 2.5:1, or 5:1), and thereby breaking down the target cells with the NK cells activated by the ginsenoside, and the europium fluorescent dye labeled to the target cells was released as a reaction solution. Upon completion of the reaction, the level of the europium fluorescent dye contained in the reaction solution was measured, and the cell-killing activity of the NK cells was compared (FIGS. 5A and 5B). In particular, NK cells treated with DMSO, instead of ginsenosides, were used as control group.

NK cells [4] = assay: Concentration-dependent change of CD107a level on NK cells (Example 4); settings: NK cells isolated from PBMC, 5 μM to 20 μM; DMSO control; FIGS. 4A and 4B
Description: NK cells isolated from PBMC were treated with ginsenoside F1 (which increases the selected CD107a level to the highest level) and Rg3 (which increases the selected CD107a level to the 2nd highest level), selected from Example 3, at various concentrations (5 μM to 20 μM), and the change in the CD107a level was measured (FIGS. 4A and 4B). In particular, NK cells treated with DMSO, instead of ginsenosides, were used as a control group.

NK cells [5] = assay: CD107a level on primary NK cells incubated with mutants of KCL-22 cells (Example 3); settings: NK cells isolated from PBMC, incubated with mutants of KCL-22 cells (Gleevec-resistant leukemia cells); DMSO control; FIG. 3
Description: An attempt was made to select ginsenosides which induce the increase of the CD107a level on primary NK cells among the 4 different kinds of ginsenosides (Rg3, Rh2, F1, and Rg1) selected in Example 2.
Specifically, the NK cells isolated from the PBMC were activated by treating with the 4 different kinds of ginsenosides, then incubated with mutants of KCL-22 cells (i.e., Gleevec-resistant leukemia cells), and the level of CD107a on NK cells was measured and compared (FIG. 3). In particular, NK cells treated with DMSO, instead of ginsenosides, were used as a control group.

SMILES | level of CD107a expression on NK cells (NK cells [1]) | expression level of IFN-γ by NK cells (NK cells [2]) | cell-killing activity of NK cells (europium fluorescent dye release) [3] | change in the CD107a level on NK cells by concentration (NK cells [4]) | level of CD107a on primary NK cells (rank among the 4 ginsenosides) (NK cells [5]) [nd highest]
CC(C)=CCC[C@](C)(O[C@@H]1O[C@H](CO)[C@@H](O)[C@H](O)[C@H]1O)[C@H]1CC[C@]2(C)[C@@H]1[C@H](O)C[C@@H]1[C@@]3(C)CC[C@H](O[C@@H]4O[C@H](CO)[C@@H](O)[C@H](O)[C@H]4O)C(C)(C)[C@@H]3CC[C@]12C [F2] | increase the level of CD107a expression on NK cells | – | – | – | –
CC(C)=CCC[C@](C)(O[C@@H]1O[C@H](CO[C@@H]2O[C@H](CO)[C@@H](O)[C@H](O)[C@H]2O)[C@@H](O)[C@H](O)[C@H]1O)[C@H]1CC[C@]2(C)[C@@H]1[C@H](O)C[C@@H]1[C@@]3(C)CC[C@H](O[C@@H]4O[C@H](CO)[C@@H](O)[C@H](O)[C@H]4O[C@@H]4O[C@H](CO)[C@@H](O)[C@H](O)[C@H]4O)C(C)(C)[C@@H]3CC[C@]12C [Rb1] | increase the level of CD107a expression on NK cells | – | – | – | –
CC(C)=CCC[C@](C)(O[C@@H]1O[C@H](CO)[C@@H](O)[C@H](O)[C@H]1O)[C@H]1CC[C@]2(C)[C@@H]1[C@H](O)C[C@@H]1[C@@]3(C)CC[C@H](O)C(C)(C)[C@@H]3[C@@H](O[C@@H]3O[C@H](CO)[C@@H](O)[C@H](O)[C@H]3O)C[C@]12C [Rg1] | increase the level of CD107a expression on NK cells | increased | – | – | –
CC(C)=CCC[C@](C)(O)[C@H]1CC[C@]2(C)[C@@H]1[C@H](O)C[C@@H]1[C@@]3(C)CC[C@H](O)C(C)(C)[C@@H]3[C@@H](O[C@@H]3O[C@H](CO)[C@@H](O)[C@H](O)[C@H]3O[C@@H]3O[C@@H](C)[C@H](O)[C@@H](O)[C@H]3O)C[C@]12C [Rg2] | increase the level of CD107a expression on NK cells | – | – | – | –
CC(C)=CCC[C@](C)(O)[C@H]1CC[C@]2(C)[C@@H]1[C@H](O)C[C@@H]1[C@@]3(C)CC[C@H](O[C@@H]4O[C@H](CO)[C@@H](O)[C@H](O)[C@H]4O)C(C)(C)[C@@H]3CC[C@]12C [Rh2] | increase the level of CD107a expression on NK cells | increased | – | – | –
CC(C)=CCC[C@](C)(O)[C@H]1CC[C@]2(C)[C@@H]1[C@H](O)C[C@@H]1[C@@]3(C)CC[C@H](O[C@@H]4O[C@H](CO)[C@@H](O)[C@H](O)[C@H]4O[C@@H]4O[C@H](CO)[C@@H](O)[C@H](O)[C@H]4O)C(C)(C)[C@@H]3CC[C@]12C [ginsenoside Rg3, 20(S)-protopanaxadiol-3-0-β-D-glucopyranosyl(1,2)-β-D-glucopyranoside] | increase the level of CD107a expression on NK cells | increased | promote the cell-killing activity of NK cells against mutants of KCL-22 cells | increase the expression levels of CD107a on NK cells in a concentration-dependent manner | 2
